Experimental data published in US8288375B2, “Fungicidal bicyclic pyrazoles” (E.I. du Pont de Nemours and Company, priority 2007, dated 2012).

Tests used:
Type in all cases: in vivo
Pythium aphanidermatum = test: Test L: bluegrass pythium blight, test suspension sprayed on bluegrass seedlings, disease rating; details: 200 ppm test suspension;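 further: 200 ppm unless marked * meaning 40 ppm or ** meaning 10 ppm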
Rhizoctonia oryzae = test: Test I: turf brown patch, test suspension sprayed on creeping bent grass seedlings, disease rating; details: 200 ppm test suspension
[1] = tested on: Erysiphe graminis f. sp. tritici; test: Test A: wheat powdery mildew, test suspension sprayed on wheat seedlings, disease rating; details: 200 ppm test suspension; 100 = 100% disease control, 0 = no control
Fusarium graminearum = test: whole plant or invertebrate; details: 200 ppm test suspension
[2] = tested on: Colletotrichum orbiculare; test: Test F: cucumber Colletotrichum anthracnose, test suspension sprayed on cucumber seedlings, disease rating; details: 200 ppm test suspension
[3] = tested on: Puccinia recondite f sp. tritici; test: Test B: wheat leaf rust, test suspension sprayed on wheat seedlings, disease rating; details: 200 ppm test suspension;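 further: 200 ppm unless marked * meaning 40 ppm or ** meaning 10 ppm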
Septoria tritici = test: Test E: wheat leaf blotch, test suspension sprayed on wheat seedlings, disease rating; details: 200 ppm test suspension;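 further: 200 ppm unless marked * meaning 40 ppm or ** meaning 10 ppm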
Plasmopara viticola = test: Test K: grape downy mildew, grape seedlings inoculated and then sprayed, disease rating; details: 200 ppm test suspension
Phytophthora infestans = test: whole plant or invertebrate; details: 200 ppm test suspension
Septoria nodorum = test: Test D: wheat glume blotch, test suspension sprayed on wheat seedlings, disease rating; details: 200 ppm test suspension
Sclerotinia sclerotiorum = test: Test M: cucumber white mold, test suspension sprayed on cucumber seedlings, disease rating; details: 200 ppm test suspension
From the text: General protocol for preparing test suspensions for Tests A-M: The test compounds were first dissolved in acetone in an amount equal to 3% of the final volume and then suspended at the desired concentration (in ppm) in acetone and purified water (50/50 mix) containing 250 ppm of the surfactant Trem® 014 (polyhydric alcohol esters). The resulting test suspensions were then used in Tests A-M. Spraying a 200 ppm test suspension to the point of run-off on the test plants was the equivalent of an application rate of 500 g/ha.
The test suspension was sprayed to the point of run-off on cucumber seedlings. The following day the seedlings were inoculated with a spore suspension of Sclerotinia sclerotiorum (the causal agent of cucumber white mold) and incubated in saturated atmosphere at 24° C. for 72 h, and then moved to a growth chamber at 24° C. for 3 additional days, after which time disease ratings were made.
Results for Tests A-M are given in Table A. In the table, a rating of 100 indicates 100% disease control and a rating of 0 indicates no disease control (relative to the controls). A dash (-) indicates no test results. All results are for 200 ppm test suspension except where followed by “*” which indicates 40 ppm or by “**” which indicates 10 ppm.

Botrytis cinerea = test: Test H: tomato Botrytis, test suspension sprayed on tomato seedlings, disease rating; details: 200 ppm test suspension

SMILES: COCC(C)Nc1nccc(-c2c(-c3ccc(F)cc3)nn3c2CCCC3)n1 (stereo not drawn) [compound 1]
- Test L disease control rating (Pythium aphanidermatum): 100%
- Test I disease control rating (Rhizoctonia oryzae): 41%
- Test A disease control rating [1]: 94%
- Test C disease control rating (Fusarium graminearum): 100%
- Test F disease control rating [2]: 96%
- Test B disease control rating [3]: 100%
- Test E disease control rating (Septoria tritici): 98%
- Test K disease control rating (Plasmopara viticola): 0%
- Test J disease control rating (Phytophthora infestans): 100%
- Test D disease control rating (Septoria nodorum): 98%
- Test M disease control rating (Sclerotinia sclerotiorum): 99%
- Test H disease control rating (Botrytis cinerea): 91%
